Measured values taken from patent US8481738B2, “Gonadotropin-releasing hormone receptor antagonists and methods relating thereto” (Neurocrine Biosciences, Inc., priority 2007, dated 2013).
pKi: −log10 of the molar value.

molecular target: T1, human GnRH receptor (Homo sapiens, UniProt P30968); assay: Peptide competition radioligand binding displacement assay, human GnRH receptor membranes; conditions: one or more of the peptide competition human receptor binding assays
T1 construct: expressed in transfected cells; host or cells: RBL cells, stably transfected (in general)
T1 sequence (P30968 1-328): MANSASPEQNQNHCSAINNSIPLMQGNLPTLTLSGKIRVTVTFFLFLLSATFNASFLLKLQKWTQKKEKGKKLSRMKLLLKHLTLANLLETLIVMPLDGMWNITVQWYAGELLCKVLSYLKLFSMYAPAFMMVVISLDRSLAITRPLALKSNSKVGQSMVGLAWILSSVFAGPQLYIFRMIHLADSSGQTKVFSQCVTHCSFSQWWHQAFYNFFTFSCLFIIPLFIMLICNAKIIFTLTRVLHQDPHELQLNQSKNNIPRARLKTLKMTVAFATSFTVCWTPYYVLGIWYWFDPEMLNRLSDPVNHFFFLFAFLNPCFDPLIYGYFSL
Description: cDNA's of human, rhesus macaque, rabbit, dog and rat GnRH receptors are cloned into pcDNA3.1 (+) (Invitrogen). Full length sequences of all receptors are confirmed by DNA sequencing. HEK 293, CHO, COS-7, or rat basophilic leukemia (RBL) cells are stably transfected with human, rat, or macaque GnRH receptors and high expressing single cell clones (Bmax≧0.4 pMol/mg membrane protein) are isolated and maintained in Dulbecco's Modified Eagles Medium (DMEM) with following supplements: 10 mM HEPES; 2 mM L-glutamine; 1 mM Sodium Pyruvate; 50 U/mL penicillin, 50 μg/mL streptomycin; 10% Heat-inactivated Fetal Bovine Serum and 200 μg/mL Geneticin (G-418-Sulfate). Non-essential amino acids (0.1 mM) (Irvine Scientific; Santa Ana, Calif.) are included in the RBL cell media.
In general, initial peptide radioligand binding assays are carried out using membranes from stably transfected RBL cells. RBL stable clones are found to more consistently express high levels of GnRH receptor and are therefore used for subsequent binding studies as well as Ca^++ flux and inositol phosphate accumulation assays. Transiently transfected COS-7 cells are used for preparation of membranes containing GnRH receptors from multiple species (as well as those of mutant receptors for other studies) because of the convenience for rapidly analyzing multiple receptors.
HEK293 cells stably transfected with the human GnRH receptor are grown for two days after achieving confluence then are harvested by striking tissue culture flasks against a firm surface. Cells are collected by centrifugation at 1000 g for 5 minutes. Cell pellets are resuspended in 5% sucrose and homogenized using a polytron homogenizer for two 15 second homogenization steps. Cell homogenates are then centrifuged for 5 minutes at 3000 g to remove nuclei and the supernatant subsequently centrifuged for 30 minutes at 44,000 g to collect the membrane fraction. The membrane pellet is resuspended in GnRH binding buffer (10 mM HEPES, pH 7.5, 150 mM NaCl and 0.1% BSA) and aliquots immediately snap-frozen in liquid nitrogen and stored at −80° C. Protein content of the membrane suspension is determined using the Bio-Rad protein assay kit (Bio-Rad).
RBL cells stably transfected with the human GnRH receptor are grown to 80% confluency prior to harvesting. The cells are incubated at 37° C. for 10 min in 0.5 mM EDTA/PBS (Ca^++, Mg^++ free), and are dislodged from the plate by gentle rapping of the flasks. Cells are collected and pelleted by centrifugation at 1000 g for 5 minutes. Cell pellets are resuspended in buffer (DPBS supplemented with 10 mM MgCl2, 2 mM EGTA, pH=7.4), and cell lysis is performed using a pressure cell and applying N2 at a pressure of 900 psi for 30 min at 4° C. Unbroken cells and larger debris were removed by centrifugation at 1200 g for 10 min at 4° C. The cell membrane supernatant is then centrifuged at 45,000 g and the resulting membrane pellet is resuspended in assay buffer and homogenized on ice using a tissue homogenizer. Protein concentrations are determined using the Coomassie Plus Protein Reagent kit. Membranes are aliquoted and stored at −80° C. until ready for use.
COS-7 cells transiently transfected with GnRH receptors from different species (human, macaque, dog, rabbit, rat) or mutant GnRH receptors are prepared by bulk electroporation. COS-7 cells are obtained from American Type Cell Culture (Manassas, Va.) and are maintained in Dulbeccos's modified Eagle's medium (DMEM) (MediaTech Inc., Herndon, Va.) containing 10% fetal bovine serum, 10 mM HEPES, 2 mM L-glutamine, 1 mM sodium pyruvate, 50 U/mL penicillin, 50 μg/mL streptomycin. COS-7 cells are seeded in 500 cm^2 tissue culture plates and grown to confluency prior to cell transfection. […]

pKi, ≥ 7.00:
Cc1ccccc1N(C)C(=O)c1cc(-c2cnc(Cl)cc2Cl)c(Cl)cc1OCCCC(=O)O [20-2]
CN(C(=O)c1ccc(Cl)c(-c2cnc(C(F)(F)F)cc2C#N)c1)c1ccccc1OCCN1CCC[C@@H]1C(=O)O [50-2]
COc1ccccc1N(C)C(=O)c1ccc(Cl)c(-c2cnc(Cl)cc2Cl)c1 [2-3]
COc1ccccc1N(C)C(=O)c1ccc(Cl)c(-n2c(C)cc(C(F)(F)F)nc2=O)c1 [30-15]
COc1ccccc1N(C)C(=O)c1ccc(Cl)c(-c2nc(C)c(Cl)cc2Cl)c1 [2-80]
Cc1cc(C#N)ncc1-c1cc(C(=O)N(C)c2c(C)cccc2C)c(OCCCC(=O)O)cc1Cl [22-8]
COc1cc(Cl)c(-c2cnc(C(F)(F)F)cc2C#N)cc1C(=O)N(C)c1ncccc1C [39-21]
Cc1cnc(-c2cc(C(=O)N(C)c3cccc(C)c3C)ccc2Cl)c(C)c1 [2-68]
Cc1cccc(C)c1N(C)C(=O)c1cc(-c2cnc(C(F)(F)F)cc2C#N)c(Cl)cc1OCCCC(=O)O [22-4]
CC(OC(=O)CCOc1ccccc1N(C)C(=O)c1ccc(Cl)c(-c2cnc(C(F)(F)F)cc2C#N)c1)OC(=O)OC1CCCCC1 (stereo not shown) [37-1, 3-(2-{[4-Chloro-3-(4-cyano-6-trifluoromethyl-pyridin-3-yl)-benzoyl]-methyl-amino}-phenoxy)-propionic acid 1-cyclohexyloxycarbonyloxy-ethyl ester]
COc1ccccc1N(C(=O)c1ccc(Cl)c(-c2ncc(Cl)cc2Cl)c1)C1CC1 [18-1, 4-Chloro-N-cyclopropyl-3-(3,5-dichloro-pyridin-2-yl)-N-(2-methoxy-phenyl)-benzamide]
COc1ccccc1N(C)C(=O)c1ccc(Cl)c(-c2ncnc3scc(C)c23)c1 [2-50]
COc1ccccc1N(C)C(=O)c1cc(-c2cnc(C(F)(F)F)cc2C#N)c(Cl)cc1OCCNC(C)=O [47-1, 2-(2-Acetylamino-ethoxy)-4-chloro-5-(4-cyano-6-trifluoromethyl-pyridin-3-yl)-N-(2-methoxy-phenyl)-N-methyl-benzamide]
CN(CC1CC1)C(=O)c1cc(-c2cnc(C(F)(F)F)cc2C#N)c(Cl)cc1OCCCC(=O)O [34-25]
COc1ccccc1N(C)C(=O)c1cc(-c2cnc(C(F)(F)F)cc2C#N)c(Cl)cc1CC(=O)O [44-1, {5-Chloro-4-(4-cyano-6-trifluoromethyl-pyridin-3-yl)-2-[(2-methoxy-phenyl)-methyl-carbamoyl]-phenyl}-acetic acid]
COc1cccc(N(C)C(=O)c2cc(-c3cnc(C(F)(F)F)cc3C#N)c(Cl)cc2OC)n1 [39-23]
COc1cccc(C)c1N(C)C(=O)c1cc(-c2nc3ccccc3cc2C#N)c(Cl)cc1OCCCC(=O)O [22-3]
COc1ccccc1N(C)C(=O)c1cc(-c2cnc(C(F)(F)F)cc2C#N)c(Cl)cc1OCCCc1nnn[nH]1 [35-1, 4-Chloro-5-(4-cyano-6-trifluoromethyl-pyridin-3-yl)-N-(2-methoxy-phenyl)-N-methyl-2-[3-(1H-tetrazol-5-yl)-propoxy]-benzamide]
COc1cc(Cl)c(-c2cnc(C(F)(F)F)cc2C#N)cc1C(=O)N(C)c1cc(F)ccc1C [39-11]
COc1c(Cl)cccc1N(C)C(=O)c1cc(-c2cnc(C(F)(F)F)cc2C#N)c(Cl)cc1OCCCC(=O)O [34-6]
COc1cccc(C)c1N(C)C(=O)c1cc(-c2cnc(C(F)(F)F)cc2C#N)c(Cl)cc1OCCCN [23-1, 2-(3-Amino-propoxy)-4-chloro-5-(4-cyano-6-trifluoromethyl-pyridin-3-yl)-N-(2-methoxy-6-methyl-phenyl)-N-methyl-benzamide]
COc1cccc(C)c1N(C)C(=O)c1ccc(Cl)c(-c2ncc(Cl)cc2Cl)c1 [2-69]
